Patent US20040171566A1, “Antisense modulation of p38 mitogen activated protein kinase expression” (priority 1999, published 2004)
In the oligonucleotide strings, read from the 5' end, every base follows the letter of its sugar. An asterisk marks phosphorothioate; unmarked linkages are phosphodiester. Other units and linkages are bracketed, terminal groups are in braces. A string of capitals states the bases alone. e = 2'-O-(2-methoxyethyl) (MOE); [5mC] = 5-methylcytosine; d = 2'-deoxy (DNA)

Legend:
[1] = system: human p38α mRNA; test: Human p38α mRNA expression in T-24 cells; conditions: for % p38α mRNA EXPRESSION: initial screen of human p38β oligonucleotides; for % P38α mRNA EXPRESSION: initial screen of human p38α oligonucleotides
[2] = system: human p38β mRNA; test: Human p38β mRNA expression in T-24 cells; conditions: for % P38β mRNA EXPRESSION: initial screen of human p38α oligonucleotides
[3] = system: human p38α mRNA; test: Inhibition of human p38α mRNA expression in Jurkat cells, Northern blot; assay type: cell-based
Protocol: The human Jurkat T-cell line (American Type Culture Collection, Manassas, Va.) was maintained in RPMI 1640 growth media supplemented with 10% fetal bovine serum (FBS; Hyclone, Logan, Utah). HUVEC cells (Clonetics, San Diego, Calif.) were cultivated in endothelial basal media supplemented with 10% FBS (Hyclone, Logan, Utah).
Jurkat cells were grown to approximately 75% confluency and resuspended in culture media at a density of 1×10^7 cells/ml. A total of 3.6×10^6 cells were employed for each treatment by combining 360 μl of cell suspension with oligonucleotide at the indicated concentrations to reach a final volume of 400 μl. Cells were then transferred to an electroporation cuvette and electroporated using an Electrocell Manipulator 600 instrument (Biotechnologies and Experimental Research, Inc.) employing 150 V, 1000 μF, at 13 Ω. Electroporated cells were then transferred to conical tubes containing 5 ml of culture media, mixed by inversion, and plated onto 10 cm culture dishes.
Total mRNA was isolated using the RNEASY7 Mini Kit (Qiagen, Valencia, Calif.; similar kits from other manufacturers may also be used), separated on a 1% agarose gel, transferred to HYBOND™-N+ membrane (Amersham Pharmacia Biotech, Piscataway, N.J.), a positively charged nylon membrane, and probed. p38 MAPK probes were made using the Prime-A-Gene7 kit (Promega Corporation, Madison, Wis.), a random primer labeling kit, using mouse p38α or p38β cDNA as a template. A glyceraldehyde 3-phosphate dehydrogenase (G3PDH) probe was purchased from Clontech (Palo Alto, Calif.), Catalog Number 9805-1. The fragments were purified from low-melting temperature agarose, as described in Maniatis, T., et al., Molecular Cloning: A Laboratory Manual, 1989. The G3PDH probe was labeled with REDIVUE™ ^32P-dCTP (Amersham Pharmacia Biotech, Piscataway, N.J.) and Strip-EZ labelling kit (Ambion, Austin, Tex.). mRNA was quantitated by a PhosphoImager (Molecular Dynamics, Sunnyvale, Calif.).
Jurkat cells were grown and treated as described above except the concentration of oligonucleotide was varied as indicated in Table 3. […] Maximum inhibition was approximately 70% with 16500 (SEQ ID NO 17).

[4] = dose 50 nM, relative to control oligonucleotide = 100%
[5] = dose 100 nM, relative to control oligonucleotide = 100%
[6] = dose 200 nM, relative to control oligonucleotide = 100%
[7] = initial screen of human p38β oligonucleotides
[8] = Jurkat cells electroporated with 10 μM oligonucleotide, Northern blot

## ACGTTGCTGGGCTTCAGGTC (antisense eAe[5mC]eGeTeT*dG*d[5mC]*dT*dG*dG*dG*d[5mC]*dT*dT*d[5mC]*eAeGeGeTe[5mC]) [ISIS 107874]
[1]
  % p38α mRNA EXPRESSION: 100%
[2]; [4]
  % p38β mRNA Expression: 75%
[2]; [5]
  % p38β mRNA Expression: 34%
[2]; [6]
  % p38β mRNA Expression: 23%
[2]; [7]
  % p38β mRNA Expression: 61%

## AATGATGGACTGAAATGGTC (eA*eA*eT*eG*eA*dT*dG*dG*dA*d[5mC]*dT*dG*dA*dA*dA*eT*eG*eG*eT*e[5mC]; antisense) [ISIS 100863]
[1]
  % P38α mRNA EXPRESSION: 49%
[2]
  % P38β mRNA EXPRESSION: 67%

## CACGTAGCCTGTCATTTCAT (chimeric deoxy gapped, phosphorothioate, further chemistry not given here) [ISIS 100868]
[1]
  % P38α mRNA EXPRESSION: 47%
[2]
  % P38β mRNA EXPRESSION: 60%

## TACCAGCGCGTGGCCACATA (antisense eTeAe[5mC]e[5mC]eA*dG*d[5mC]*dG*d[5mC]*dG*dT*dG*dG*d[5mC]*d[5mC]*eAe[5mC]eAeTeA) [ISIS 107875]
[1]
  % p38α mRNA EXPRESSION: 112%
[2]; [4]
  % p38β mRNA Expression: 82%
[2]; [5]
  % p38β mRNA Expression: 38%
[2]; [6]
  % p38β mRNA Expression: 40%
[2]; [7]
  % p38β mRNA Expression: 92%

## CTCACAGTCTTCATTCACAG (chimeric deoxy gapped, phosphorothioate, further chemistry not given here) [ISIS 100867]
[1]
  % P38α mRNA EXPRESSION: 58%
[2]
  % P38β mRNA EXPRESSION: 33%

## GTAAGCTTCTGACATTTCAC (antisense eG*eT*eA*eA*eG*e[5mC]*dT*dT*dC*dT*dG*dA*dC*dA*eT*eT*eT*e[5mC]*eA*e[5mC]) [ISIS 16496]
[3]; [8]
  % mRNA EXPRESSION: 61%
[3]; Jurkat cells, dose 2.5 nM
  % mRNA EXPRESSION: 94%
  % mRNA Inhibition: 6%
[3]; Jurkat cells, dose 5 nM
  % mRNA EXPRESSION: 74%
  % mRNA Inhibition: 26%
[3]; Jurkat cells, dose 10 nM
  % mRNA EXPRESSION: 47%
  % mRNA Inhibition: 53%
[3]; Jurkat cells, dose 20 nM
  % mRNA EXPRESSION: 41%
  % mRNA Inhibition: 59%

## TCCTGAGACATTTTCCAGCG (antisense eT*e[5mC]*e[5mC]*eT*eG*eA*dG*dA*dC*dA*dT*dT*dT*dT*e[5mC]*e[5mC]*eA*eG*e[5mC]*eG) [ISIS 16494]
[3]; [8]
  % mRNA EXPRESSION: 72%
  % mRNA Inhibition: 28%

## ATGGACGTGGCCGGCGTGAA (antisense eAeTeGeGeA*d[5mC]*dG*dT*dG*dG*d[5mC]*d[5mC]*dG*dG*d[5mC]*eGeTeGeAeA) [ISIS 107872]
[1]
  % p38α mRNA EXPRESSION: 123%
[2]; [4]
  % p38β mRNA Expression: 71%
[2]; [5]
  % p38β mRNA Expression: 13%
[2]; [6]
  % p38β mRNA Expression: 22%
[2]; [7]
  % p38β mRNA Expression: 57%

## CATCCCACTGACCAAATATC (chimeric deoxy gapped, phosphorothioate, further chemistry not given here) [ISIS 100869]
[1]
  % P38α mRNA EXPRESSION: 61%
[2]
  % P38β mRNA EXPRESSION: 100%

## TGTAAGCTTCTGACATTTCA (phosphorothioate gapmer, further chemistry not given here) [ISIS 100865]
[1]
  % P38α mRNA EXPRESSION: 64%
[2]
  % P38β mRNA EXPRESSION: 63%

## CATTTTCCAGCGGCAGCCGC (antisense e[5mC]*eA*eT*eT*eT*eT*dC*dC*dA*dG*dC*dG*dG*dC*eA*eG*e[5mC]*e[5mC]*eG*e[5mC]) [ISIS 16493]
[3]; [8]
  % mRNA EXPRESSION: 101%

## AGCTTCTTCACTGCCACACG (phosphorothioate gapmer, further chemistry not given here) [ISIS 100862]
[1]
  % P38α mRNA EXPRESSION: 56%
[2]
  % P38β mRNA EXPRESSION: 45%

## TGAATGTATATACTTTAGAC (eT*eG*eA*eA*eT*dG*dT*dA*dT*dA*dT*dA*d[5mC]*dT*dT*eT*eA*eG*eA*e[5mC]; antisense) [ISIS 100866]
[1]
  % P38α mRNA EXPRESSION: 55%
[2]
  % P38β mRNA EXPRESSION: 65%

## CTTCCACCATGGAGGAAATC (antisense e[5mC]*eT*eT*e[5mC]*e[5mC]*eA*dC*dC*dA*dT*dG*dG*dA*dG*eG*eA*eA*eA*eT*e[5mC]) [ISIS 16504]
[3]; [8]
  % mRNA EXPRESSION: 72%
  % mRNA Inhibition: 28%

## CGGACCAGATATCCACTGTT (antisense e[5mC]eGeGeAe[5mC]*d[5mC]*dA*dG*dA*dT*dA*dT*d[5mC]*d[5mC]*dA*e[5mC]eTeGeTeT) [ISIS 107877]
[2]; [4]
  % p38β mRNA Expression: 50%
[2]; [5]
  % p38β mRNA Expression: 34%
[2]; [6]
  % p38β mRNA Expression: 22%
